Assay results reported in paper PMC4977753, “Inhibition of ADAM10 promotes the clearance of Aβ across the BBB by reducing LRP1 ectodomain shedding” (Fluids and Barriers of the CNS, 2016).

Assays:
mice = settings: 200 mg/kg i.p. once per day for 5 consecutive days; cited from earlier work
Description: PSAPP mice at 35 weeks of age were injected intraperitoneally with 200 mg/kg of GI254023X or vehicle (DMSO) once per day for 5 consecutive days. At this age, PSAPP mice display elevated levels of Aβ peptides in the brain [22]. […] One hour after the final injection, the mice were euthanatized and plasma and brain tissue were collected. The right hemisphere was used to examine the levels of soluble and insoluble Aβ40 and Aβ42 in the brain. ...

[1] = tested on: in vitro BBB model (HBMEC monolayer); assay: Permeability of paracellular marker Lucifer yellow-dextran across the in vitro BBB model (integrity control); assay type: cell-based, human; settings: 10 kDa Lucifer yellow-dextran, any of the GI254023X concentrations, data not shown
[2] = tested on: in vitro BBB model (HBMEC monolayer); assay: Fluorescein-Aβ42 transit across an in vitro BBB model; assay type: cell-based, human; settings: fluorescein-Aβ42 2 μM basolateral, 60 min, 37 °C, basolateral-to-apical, n = 3
Description: The impact of ADAM10 on Aβ42 transcytosis was assessed using an in vitro BBB model previously described by our group. HBMECs were seeded onto fibronectin-coated 24-well membrane inserts forming a polarized monolayer representing the BBB. Aβ transcytosis across the BBB was assessed by exposing the basolateral side (“brain”) to 2 μM fluorescein-Aβ42 (rPeptide, USA) and treating the apical side (“blood”) with the ADAM10-selective inhibitor GI254023X (0.1–1 μM). After 60 min of incubation at 37 °C, samples were collected from the apical compartment to assess the basolateral-to-apical transcytosis of fluorescein-Aβ across the BBB model.
Fig. 2 Fluorescin-Aβ42 transit across an in vitro BBB model following ADAM10 inhibition. Fluorescin-Aβ42 (2 μM) was exposed to the basolateral (“brain”) side of the in vitro BBB model, while various concentrations of the ADAM10 inhibitor GI254023X (0, 0.1, 1, and 10 μM) were exposed to the apical (“blood”) compartment. Following incubation at 37 °C, samples were collected from the […] at 60 min to assess the basolateral-to-apical transcytosis of fluorescin-Aβ42 across the BBB model. Values represent mean ± SEM (n = 3) and are expressed as the percentage change from control conditions. *p < 0.05; **p < 0.01; ***p < 0.001 as determined by one-way ANOVA followed by Tukey’s post hoc analysis

PSAPP mice [3] = assay: Tolerability of the GI254023X treatment regimen in PSAPP mice; assay type: in vivo; settings: 200 mg/kg i.p. once per day for 5 days
Description: PSAPP mice at 35 weeks of age were injected intraperitoneally with 200 mg/kg of GI254023X or vehicle (DMSO) once per day for 5 consecutive days. At this age, PSAPP mice display elevated levels of Aβ peptides in the brain [22]. […] One hour after the final injection, the mice were euthanatized and plasma and brain tissue were collected. The right hemisphere was used to examine the levels of soluble and insoluble Aβ40 and Aβ42 in the brain. […] Quantification of Aβ40 and Aβ42 in the GS, GI, and plasma fractions was determined using an ELISA for human Aβ40 and Aβ42 (Invitrogen, USA) and expressed as ng of Aβ per μg total protein. […] LRP1 levels in the soluble brain fraction and plasma were assessed using a mouse ELISA for LRP1 (Cedar Lane Labs, USA). Soluble brain LRP1 was normalized to the total protein content in the brain homogenate as determined by the BCA protein assay (Thermo Scientific, USA). Soluble brain LRP1 levels were expressed as ng of LRP1 per mg protein. Plasma LRP1 levels were expressed as ng/ml. […] The sAPPα levels were normalized to the total protein content in the brain homogenate as determined by the BCA protein assay and expressed as ng of sAPPα per mg protein.

PSAPP mice [4] = assay: Aβ, soluble LRP1 and sAPPα levels in PSAPP mice following ADAM10 inhibition; assay type: in vivo, mouse; settings: 200 mg/kg i.p. once per day for 5 days
Description: PSAPP mice at 35 weeks of age were injected intraperitoneally with 200 mg/kg of GI254023X or vehicle (DMSO) once per day for 5 consecutive days. At this age, PSAPP mice display elevated levels of Aβ peptides in the brain [22]. […] One hour after the final injection, the mice were euthanatized and plasma and brain tissue were collected. The right hemisphere was used to examine the levels of soluble and insoluble Aβ40 and Aβ42 in the brain. Briefly, the hemispheres were homogenized by sonication in 700 μl lysis buffer [M-PER + 1 % EDTA +0.2 % PMSF (Thermo Scientific, USA)] supplemented with Halt protease and phosphatase inhibitor cocktail (Thermo Scientific, USA) on ice before centrifugation at 14000g for 30 min at 4 °C. 100 μl of the resulting supernatant was mixed with 5 M guanidine in TRIS buffer resulting in the guanidine soluble (GS) fraction. For the guanidine insoluble (GI) fraction, 100 μl of the guanidine stock was combined with the original tissue pellet. Both GS and GI fractions were subsequently incubated at room temperature for 1 h and were mixed every 15 min. All samples were stored at −80 °C prior to analysis. Quantification of Aβ40 and Aβ42 in the GS, GI, and plasma fractions was determined using an ELISA for human Aβ40 and Aβ42 (Invitrogen, USA) and expressed as ng of Aβ per μg total protein. The left hemisphere was used to examine the levels of soluble LRP1 in the brain. Here, the hemisphere was homogenized using a Dounce homogenizer in ice cold in HBSS using the same procedure as the in vivo LRP1 shedding studies above. LRP1 levels in the soluble brain fraction and plasma were assessed using a mouse ELISA for LRP1 (Cedar Lane Labs, USA). Soluble brain LRP1 was normalized to the total protein content in the brain homogenate as determined by the BCA protein assay (Thermo Scientific, USA). Soluble brain LRP1 levels were expressed as ng of LRP1 per mg protein. Plasma LRP1 levels were expressed as ng/ml. In addition, sAPPα levels were examined in the brain homogenate of these same animals using an ELISA for sAPPα (IBL international, USA). The sAPPα levels were normalized to the total protein content in the brain homogenate as determined by the BCA protein assay and expressed as ng of sAPPα per mg protein.
Fig. 4 LRP1 shedding brain and plasma following ADAM10 modulation in a mouse model of AD. The ADAM10 inhibitor GI254023X (200 mg/kg) or vehicle (DMSO) was administered via intraperitoneal injection once per day for five consecutive days to PSAPP mice (35 weeks of age). One hour after the final injection, the brains and plasma was collected and the soluble brain fraction a and the plasma b was probed for LRP using an ELISA. Values represent mean ± SEM (n = 8–9 [soluble brain LRP1] or 5 [soluble plasma LRP1]) and are expressed as the amount of LRP per mg total protein or per ml. *p < 0.05 as determined by an unpaired t test
Fig. 5 Levels of sAPPα in the brain following ADAM10 modulation in a mouse model of AD. PSAPP mice (35 weeks of age) were treated in an acute 5-day treatment paradigm with ADAM10 inhibitor GI254023X (200 mg/kg) or vehicle (DMSO) which were administered via intraperitoneal injection. One hour after the final treatment, the brains were collected and sAPPα in the whole brain homogenate was probed using an sAPPα ELISA. Values represent mean ± SEM (n = 8–9) and are expressed as the amount of sAPPα per mg total protein. Statistical significance determined by an unpaired t test
Fig. 6 Aβ plasma levels following ADAM10 modulation in a mouse model of AD. The ADAM10 inhibitor GI254023X (200 mg/kg) or vehicle (DMSO) was administered via intraperitoneal injection once per day for five consecutive days to PSAPP mice (35 weeks of age). One hour after the final injection, the plasma was collected and probed for a Aβ40 and b Aβ42 by ELISA. Values represent mean ± SEM (n = 8–9) and are expressed as the amount of Aβ40 or Aβ42 per ml of plasma. […]

[5] = tested on: LRP1 shedding in human brain endothelial cells (HBMEC); assay: In vitro LRP1 shedding in HBMEC monolayers (LRP1 ELISA of extracellular media); assay type: cell-based; settings: 48 h, 37 °C
Description: Human Brain Microvessel endothelial cells (HBMECs) (ScienCell, USA) were seeded at 50,000 cells per cm^2 onto fibronectin-coated 6-well plates as previously described by our group. When approximately 90 % confluent, cells were treated with Aβ42 (2 μM) or both Aβ42 and the ADAM10-selective inhibitor GI254023X (1 μM) (Sigma-Aldrich, USA) and incubated at 37 °C for 48 h. […] After the 48 h incubation, the extracellular media was collected and the level of soluble LRP1 was assessed using an ELISA for LRP1 (Cat# SEB010Hu, Cedar Lane Labs, USA).
Fig. 1 LRP1shedding in human brain endothelial cells (HBMEC) following ADAM10 inhibition. HBMEC monolayers were exposed to human Aβ42 (2 μM) alone, Aβ42 (2 μM) and the ADAM10 inhibitor GI254023X (1 μM) for 48 h at 37 °C. LRP shedding was assessed by examining LRP content in the extracellular media using an LRP1 ELISA. Values represent mean ± SEM (n = 3) and are expressed as ng of extracellular LRP1 per ml of media. *p < 0.05 as determined by one-way ANOVA followed by Tukey’s post hoc analysis

[6] = PSAPP mice, guanidine insoluble fraction, ELISA, n = 8-9, not statistically significant
[7] = PSAPP mice, guanidine soluble fraction, ELISA, n = 8-9, not statistically significant

Molecule	ADAM10 activity in mice under this treatment regime (mice)	tolerability of treatment regime (mice)	BBB permeability of the paracellular marker Lucifer yellow-dextran versus control [1]	transcytosis of fluorescein-Aβ across in vitro BBB model (trend) ([2]; GI254023X 0.1, 1, 10 μM apical)	increase of fluorescein-Aβ transcytosis across in vitro BBB model versus control ([2]; significant increases at concentrations higher than 1 μM GI254023X) [fold]	tolerability of treatment regimen (appearance, behavior, weight loss) (PSAPP mice [3])	reduction of soluble LRP1 in the brain versus vehicle (PSAPP mice [4]; PSAPP mice 35 weeks, 1 h after final injection, soluble brain fraction, ELISA, n = 8-9, p < 0.05) [%]	reduction of insoluble Aβ40 in the brain versus vehicle (PSAPP mice [4]; [6]) [fold]	reduction of insoluble Aβ42 in the brain versus vehicle (PSAPP mice [4]; [6]) [fold]	reduction of soluble Aβ40 in the brain versus vehicle (PSAPP mice [4]; [7]) [fold]	reduction of soluble Aβ42 in the brain versus vehicle (PSAPP mice [4]; [7]) [fold]	LRP1 levels in the plasma versus vehicle (PSAPP mice [4]; PSAPP mice, plasma, ELISA, n = 5)	effect on Aβ42 plasma levels versus vehicle (PSAPP mice [4]; PSAPP mice, plasma, ELISA, n = 8-9)	increase of Aβ40 in the plasma versus vehicle (PSAPP mice [4]; PSAPP mice, plasma, ELISA, n = 8-9, significant) [fold]	level of sAPPα in the brain versus vehicle (PSAPP mice [4]; PSAPP mice, whole brain homogenate, sAPPα ELISA, n = 8-9)	effect on Aβ42-induced extracellular LRP1 shedding ([5]; Aβ42 2 μM plus GI254023X 1 μM, n = 3)	extracellular shedding of LRP1 compared to control conditions ([5]; Aβ42 2 μM, mean ± SEM n = 3, significant (p < 0.05))
CNC(=O)[C@@H](NC(=O)[C@H](CCCc1ccccc1)[C@H](C)N(O)C=O)C(C)(C)C [GI254023X]	effectively inhibit ADAM10 activity	well tolerated with no adverse effects reported	no significant difference	increased following GI254023X treatment in a dose dependent manner	≥ 1.25	well tolerated	60	1.20	1.20	1.15	1.25	not significantly different	not significant	1.45	No significant difference	completely abrogated the effect of Aβ42 on shedding	–
Aβ42: human recombinant beta-amyloid 42 peptide, used to induce LRP1 shedding; fluorescein-labeled form used as transport probe	–	–	–	–	–	–	–	–	–	–	–	–	–	–	–	–	twofold
